Assay results taken from publication PMC11279566, “Novel Coumarin–Nucleobase Hybrids with Potential Anticancer Activity: Synthesis, In Vitro Cell-Based Evaluation, and Molecular Docking” (Pharmaceuticals, 2024).
Read-outs that look alike come from different tables or passages of the source.

Tests used:
[1] = system: human acute T lymphoblastic leukemia cell lines (MOLT-3); design: method as in PMID 25078311; settings: antiproliferative activity, read-out: IC50 against MOLT3 cell line; cited from earlier work
[2] = system: human prostate cancer cell line (DU145); design: method as in PMID 23124212; settings: read-out: IC50 against DU145 cell line; cited from earlier work
[3] = system: human colon carcinoma cells (HCT116); experiment: colorimetric MTT cytotoxicity assay, HCT116; assay type: cell-based; settings: for IC50: Homo sapiens, HCT-116, MTT, n = 3, compounds as HP-β-CD inclusion complex; for Selectivity Index HCT116 24 h: IC50 of HaCat / IC50 of HCT116, 24 h; for Selectivity Index HCT116 48 h: IC50 of HaCat / IC50 of HCT116, 48 h
Procedure: (§1) The potential antitumor activity of eight new hybrids was evaluated through colorimetric microculture MTT assay against three tumor cell lines: human colon carcinoma cells (HCT116), human laryngeal tumor cells (Hep-2), and human lung carcinoma cells (A549). The hybridized compounds were also assayed against the non-tumor cell line HaCat (human keratinocyte) in order to obtain an indication of their selective cytotoxicity. Also, the commercial anticancer drug doxorubicin was employed as a positive drug standard to compare the cytotoxicity activities. Each experiment was carried out in triplicate on three different days. The selectivity index (SI) was calculated as the ratio between the IC50 (concentration that reduces cell viability by 50%) of HaCat (non-tumor line) and the IC50 of the tumor lines.
(§2) A total of 1 mL of an ethanolic solution containing compounds 7a,b, 8a,b, 9a,b, or 10a,b (0.004 mol L^−1) was vigorously stirred with 1 mL of an aqueous solution of HP-β-CD (0.004 mol L^−1). The resulting mixture was kept under stirring until a clear solution was obtained. The final solution was concentrated under a vacuum to remove the solvent, and the remaining water was removed by lyophilization to give a water-soluble compound of the HP-β-CD complex in a powder form. The stock solutions of the compounds were prepared by dissolving the complexed compounds in 200 µL of DMSO, followed by dissolving in 1800 µL of Dulbecco’s Modified Eagle Medium (DMEM). The stock solution and dilutions were prepared prior to the cytotoxicity assays.
(§3) The human colon carcinoma (HCT116), human laryngeal tumor (Hep-2), and human lung carcinoma (A549) cell lines, and the non-tumor human keratinocyte cell line (HaCat) were purchased from Rio de Janeiro Cell Bank. The cells were maintained in DMEM supplemented with […]; Life Technologies, Carlsbad, CA, USA) and 1% penicillin–streptomycin in a humidified 5% CO2 atmosphere at 37 °C.
(§4) Cytotoxicity was assayed through the colorimetric microculture MTT assay. Cell suspensions were plated in 96-well plates in triplicate at an initial density of 7 × 10^4 cells mL^−1 and incubated at 37 °C for 24 h. After the incubation, the cells were treated with various concentrations of the evaluated compounds (7a,b, 8a,b, 9a,b, or 10a,b) and incubated for 24 and 48 h. After the treatment, the medium was removed, and an MTT solution (0.4 mg mL^−1) was added to each well and further incubated for 2 h at 37 °C. Then, DMSO (100 µL) was added for the solubilization of the formazan crystals, and the absorbance intensities were measured in a microplate reader (SpectraMax M2e, Molecular Devices, Sunnyvale, CA, USA) at 570 nm. The percentage of viable cells was calculated in relation to the control to determine the cytotoxic concentration that reduces 50% of the cell viability (IC50).

[4] = system: human lung carcinoma cells (A549); experiment: colorimetric MTT cytotoxicity assay, A549; assay type: cell-based; settings: for IC50: Homo sapiens, MTT, n = 3, compounds as HP-β-CD inclusion complex
Procedure: as §1, §2, §3, §4

[5] = system: human laryngeal tumor cells (Hep-2); experiment: colorimetric MTT cytotoxicity assay, Hep-2; assay type: cell-based; settings: for IC50: Homo sapiens, MTT, n = 3, compounds as HP-β-CD inclusion complex; for Selectivity Index Hep-2 24 h: IC50 of HaCat / IC50 of Hep-2, 24 h
Procedure: as §1, §2, §3, §4

[6] = system: HaCat (human keratinocyte); experiment: colorimetric MTT cytotoxicity assay, non-tumor HaCat; assay type: cell-based; settings: for IC50: Homo sapiens, HaCat non-tumor line, MTT, n = 3, compounds as HP-β-CD inclusion complex
Procedure: as §1, §2, §3, §4

[7] = HCT116, 24 h, read-out: IC50 (µM ± SD) HCT116 24 h
[8] = HCT116, 48 h, read-out: IC50 (µM ± SD) HCT116 48 h
[9] = A549, 24 h, read-out: IC50 (µM ± SD) A549 24 h
[10] = A549, 48 h, read-out: IC50 (µM ± SD) A549 48 h
[11] = Hep-2, 24 h, read-out: IC50 (µM ± SD) Hep-2 24 h
[12] = Hep-2, 48 h, read-out: IC50 (µM ± SD) Hep-2 48 h
[13] = 24 h, read-out: IC50 (µM ± SD) HaCat 24 h
[14] = 48 h, read-out: IC50 (µM ± SD) HaCat 48 h

Row | SMILES | IC50 [1] [µM] | IC50 [2] [µM] | IC50 [3, 7] [µM] | IC50 [3, 8] [µM] | IC50 [4, 9] [µM] | IC50 [4, 10] [µM] | IC50 [5, 11] [µM] | IC50 [5, 12] [µM] | IC50 [6, 13] [µM] | IC50 [6, 14] [µM] | melting point | Selectivity Index HCT116 24 h [3] | activity compared to doxorubicin (fold) ([3]; HCT116 cell line, IC50 relative to doxorubicin) | Selectivity Index HCT116 48 h [3] | cytotoxicity effect against A549 cells (in words) ([4]; 24 and 48 h treatments) | Selectivity Index Hep-2 24 h [5] | cytotoxicity against the non-tumor cells HaCat (in words) ([6]; highest evaluated concentration 100 μM, all exposure times) | Selectivity Index A549 48 h ([4]; IC50 of HaCat / IC50 of A549, 48 h) | cytotoxicity for Hep-2 cells (in words) [5]
1 | COc1cccc(/C=C/C(=O)c2cccc(-n3cc(COc4cc(=O)oc5ccccc45)nn3)c2)c1OC [A] | 0.53 |  |  |  |  |  |  |  |  |  |  |  |  |  |  |  |  |  | 
2 | O=C1C(=O)N(CCCn2cc(Cn3ccc(=O)n(Cc4cn(CCCN5C(=O)C(=O)c6ccc(Cl)cc65)nn4)c3=O)nn2)c2cc(Cl)ccc21 [B] |  | 13.9 |  |  |  |  |  |  |  |  |  |  |  |  |  |  |  |  | 
3 | O=c1ccn(Cc2cn(Cc3cc(=O)oc4cc(O)cc(O)c34)nn2)c(=O)[nH]1 [Compound 7a, 1-((1-((5,7-Dihydroxy-2-oxo-2H-chromen-4-yl)methyl)-1H-1,2,3-triazol-4-yl)methyl) Pyrimidine-2,4(1H,3H)-dione] |  |  | > 100 | > 100 | > 100 | > 100 | > 100 | > 100 | > 100 | > 100 | 230 °C (dec.) |  |  |  |  |  |  |  | 
4 | Cc1cn(Cc2cn(Cc3cc(=O)oc4cc(O)cc(O)c34)nn2)c(=O)[nH]c1=O [Compound 7b, 1-((1-((5,7-Dihydroxy-2-oxo-2H-chromen-4-yl)methyl)-1H-1,2,3-triazol-4-yl)methyl)-5-methylpyrimidine-2,4(1H,3H)-dione] |  |  | > 100 | > 100 | > 100 | > 100 | > 100 | > 100 | > 100 | > 100 | 285 °C (dec.) |  |  |  |  |  |  |  | 
5 | O=c1ccn(Cc2cn(Cc3cc(=O)oc4c3ccc3ccccc34)nn2)c(=O)[nH]1 [Compound 8a, 1-((1-((2-Oxo-2H-benzo[h]chromen-4-yl)methyl)-1H-1,2,3-triazol-4-yl)methyl) Pyrimidine-2,4(1H,3H)-dione] |  |  | > 100 | > 100 | > 100 | > 100 | > 100 | > 100 | > 100 | > 100 | 235 °C (dec.) |  |  |  |  |  |  |  | 
6 | Cc1cn(Cc2cn(Cc3cc(=O)oc4c3ccc3ccccc34)nn2)c(=O)[nH]c1=O [Compound 8b, 1-((1-((2-Oxo-2H-benzo[h]chromen-4-yl)methyl)-1H-1,2,3-triazol-4-yl)methyl)-5-methylpyrimidine-2,4(1H,3H)-dione] |  |  | 87.6 ± 1.94 | > 100 | > 100 | > 100 | > 100 | > 100 | 454.1 ± 2.67 | > 100 | 270 to 272 °C | 5 |  |  |  |  |  |  | 
7 | O=c1cc(Cn2cc(Cn3ccc(=O)n(Cc4cn(Cc5cc(=O)oc6cc(O)cc(O)c56)nn4)c3=O)nn2)c2c(O)cc(O)cc2o1 [Compound 9a, 1,3-Bis((1-((5,7-dihydroxy-2-oxo-2H-chromen-4-yl)methyl)-1H-1,2,3-triazol-4-yl)methyl)pyrimidine-2,4(1H,3H)-dione] |  |  | 69.2 ± 1.85 | 24.2 ± 1.39 | > 100 | > 100 | 51.6 ± 1.71 | > 100 | 634.9 ± 2.8 | 142 ± 2.15 | 302 °C (dec.) |  | approximately 20 fold | 6 | No cytotoxicity effect was observed | 12 | did not exhibit appreciable cytotoxicity |  | 
8 | O=c1cc(Cn2cc(Cn3ccc(=O)n(Cc4cn(Cc5cc(=O)oc6c5ccc5ccccc56)nn4)c3=O)nn2)c2ccc3ccccc3c2o1 [Compound 9b, 1,3-Bis((1-((2-oxo-2H-benzo[h]chromen-4-yl)methyl)-1H-1,2,3-triazol-4-yl)methyl)pyrimidine-2,4(1H,3H)-dione] |  |  | 54.5 ± 1.74 | 59.2 ± 1.77 | > 100 | 51 ± 1.71 | > 100 | > 100 | 1049 ± 3.02 | 3228 ± 3.5 | 193 to 195 °C | 19 |  | 55 |  |  |  | 63 | No appreciative cytotoxicity was observed
9 | Cn1cnc2c1c(=O)n(Cc1cn(Cc3cc(=O)oc4cc(O)cc(O)c34)nn1)c(=O)n2C [Compound 10a, 1-((1-((5,7-Dihydroxy-2-oxo-2H-chromen-4-yl)methyl)-1H-1,2,3-triazol-4-yl)methyl)-3,7-dimethyl-3,7-dihydro-1H-purine-2,6-dione] |  |  | 78.3 ± 1.89 | > 100 | > 100 | > 100 | 56.6 ± 1.75 | > 100 | 307.8 ± 2.49 | > 100 | 315 °C (dec.) | 4 |  |  |  | 5 |  |  | 
10 | Cn1cnc2c1c(=O)n(Cc1cn(Cc3cc(=O)oc4c3ccc3ccccc34)nn1)c(=O)n2C [Compound 10b, 3,7-Dimethyl-1-((1-((2-oxo-2H-benzo[h]chromen-4-yl)methyl)-1H-1,2,3-triazol-4-yl)methyl)-3,7-dihydro-1H-purine-2,6-dione] |  |  | 41 ± 1.61 | 84.7 ± 1.92 | > 100 | > 100 | > 100 | > 100 | 263.3 ± 2.42 | 120 ± 2.08 | 288 to 290 °C | 6 |  |  |  |  |  |  | 
11 | COc1cccc2c1C(=O)c1c(O)c3c(c(O)c1C2=O)C[C@@](O)(C(=O)CO)C[C@@H]3O[C@H]1C[C@H](N)[C@H](O)[C@H](C)O1 [Doxorubicin, doxorubicin, reference compound] |  |  |  | 1.23 ± 0.05 |  |  |  | 1.69 ± 0.15 |  | 39.3 ± 1.59 |  |  |  |  |  |  |  |  | 
